Source: US11484536B2, “Method of treating metastatic cancer in a subject with a protein inhibitor” (City University of Hong Kong, priority 2020, dated 2022)
“Also recorded” adds a separate entry of the source.

Tests used:
[1] = tested on: HeLa cells; assay: LC3-II and p62 accumulation immunoblot; assay type: cell-based
Procedure: FIG. 12A is a synthetic scheme of a V1 analog carrying a clickable terminal alkynyl group. FIG. 12B is a synthetic scheme of azide-biotin. FIG. 12C is a synthetic scheme of Vi-biotin.
FIG. 23A is a schematic diagram illustrating the structure of 6J-1.
Subsequently, biotin-V1 was administered to HeLa cell extracts, the V1 binding complex was purified with streptavidin beads, and subjected to mass analysis. There were 85 potential V1 binding proteins identified in three independent experiments with high fidelity (FIG. 13A). Among them, 32 proteins were clustered in endocytosis and vesicle-mediated transport pathways using KOBAS online software.
In this example, a 6-morpholino-1,3,5-triazine derivative, 6J-1 was synthesized and used as an exemplary example to illustrate the inhibitory effect of 6-morpholino-1,3,5-triazine derivatives on endosomal trafficking and metastasis. As illustrated above, the induction of accumulation of LC3-II and p62 by biotin-V1 would accompany with the induction of vacuoles as well as the inhibition of transferrin degradation (see Example 4).

[2] = tested on: HeLa, A549, or MDA-MB-231 cells; assay: Cytotoxicity of 6J-1 by PI staining and living cell number; assay type: cell-based
Procedure: FIG. 24A is a bar chart showing the percentage of cell death of HeLa cells treated with or without 6J-1 at the indicated concentrations for 24 or 48 h. FIG. 24B is a bar chart showing the percentage of cell death of A549 cells treated with or without 6J-1 at the indicated concentrations for 24 or 48 h. FIG. 24C is a bar chart showing the percentage of cell death of MDA-MB-231 cells treated with or without 6J-1 at the indicated concentrations for 24 or 48 h.
FIG. 25A is a line chart showing the number of HeLa cells treated with or without 6J-1 at the indicated concentrations for 0, 24 or 48 h. FIG. 25B is a line chart showing the number of MDA-MB-231 cells treated with or without 6J-1 at the indicated concentrations for 0, 24 or 48 h. FIG. 25C is a line chart showing the number of A549 cells treated with or without 6J-1 at the indicated concentrations for 0, 24 or 48 h.
The cytotoxicity of 6J-1 on different cancer cell lines has been examined by PI staining, and the cell number of living cells was quantified as well. As shown in FIGS. 24A-24C and 25A-25C, 6J-1 is non-cytotoxic to HeLa, A549, or MDA-MB-231 cells at concentrations of 0.01-10 μM. Even at a concentration of as high as 100 μM, there were over 80% of the 6J-1-treated cells remained alive.

[3] = tested on: A549 cells; assay: Invasion of cancer cells treated with 6J-1; assay type: cell-based; details: 6J-1 1 μM
Procedure: FIG. 28 is a pair of microscopic images showing the invasion of A549 cells treated with or without 6J-1 (1 μM).
(§1) The inhibitory effect of 6J-1 on colony formation of several cancer cell lines, including 4T1, A549, HCCLM3, and HepG2 has been examined. […] Overall, 6J-1 is found to be as potent as V1.

[4] = tested on: A549 and HepG2 cells; assay: Migration of cancer cells treated with 6J-1; assay type: cell-based; details: 6J-1 1 μM
Procedure: FIG. 27A is a pair of microscopic images showing the migration of A549 cells treated with or without 6J-1 (1 μM). FIG. 27B is a series of microscopic images showing the migration of HepG2 cells treated with or without V1 (1 μM) or 6J-1 (1 μM).
as §1

[5] = tested on: 4T1, A549, HCCLM3, and HepG2; assay: Colony formation of cancer cell lines; assay type: cell-based; details: indicated concentrations
Description: FIG. 26 is a series of optical images showing colony formation of 4T1, A549, HCCLM3, and HepG2 cells treated with or without 6J-1 at the indicated concentrations.
as §1

[6] = tested on: 4T1 mouse breast cancer cells; assay: Spontaneous cancer mouse model, fat pad injection of 4T1 cells into nude mice; details: 6J-1 30 mg/kg, oral, every day, 4 weeks
Procedure: FIG. 5A is a schematic diagram showing a method for determining the anti-metastatic activity of V1 in female nude mice with their fat pads injected with 4T1 cells, where V1 is administered to the mice via an oral gauge. FIG. 5B is a series of optical images showing the excised lungs of the mice treated with a buffer or V1 (15 or 30 mg/kg, daily) via the oral gauge for 4 weeks. FIG. 5C is a line plot showing the number of tumor nodules in the excised lungs against different concentrations of V1.
FIG. 29A is a series of optical images showing the excised lungs of female nude mice treated with a buffer or 6J-1 (30 mg/kg, oral delivery, daily) for 4 weeks. FIG. 29B is a line plot showing the number of tumor nodules in the excised lungs of the mice of FIG. 29A.
First, we studied V1's anti-metastatic effects in a spontaneous cancer mouse model by fat pad injecting 4T1 mouse breast cancer cells into nude mice (FIG. 5A). After tumors were palpable (˜5 mm, around day 9), the mice were randomly divided into three groups (six mice per group) orally treated with or without V1 (15 or 30 mg/ml) every day. After 4 weeks, the mice were sacrificed; the primary tumors and lungs of the mice were harvested for analysis.

[7] = tested on: 4T1, 4T07, and MDA-MB-231 cells; assay: Trans-well migration assay; assay type: cell-based, human or mouse; details: indicated concentrations, 18 h, compared with V1
Procedure: FIG. 2A is a series of microscopic images and bar charts showing the migration of 4T1, 4T07, and MDA-MB-231 cells in transwell plates in the presence or absence of V1 (1 μM). FIG. 2B is a series of microscopic images and bar charts showing the invasion of 4T1, 4T07, and MDA-MB-231 cells in invasion chambers in the presence or absence of V1 (1 μM). FIG. 2C is a series of optical images and a bar chart showing the closure of a scratch-wound plated with 4T1 cells, treated with or without V1 (1 μM), after 0, 24, and 48 h. FIG. 2D is a series of optical images and a bar chart showing the closure of a scratch-wound plated with 4T07 cells, treated with or without V1 (1 μM), after 0, 24, and 48 h. FIG. 2E is a series of microscopic images showing the migration of 4T07 cells in transwell plates in the presence or absence of V1 or LA at indicated concentrations after 18 h. […]
In this example, the cytotoxicity and the anti-migration effects of V1 are compared with latrunculin A (LA), an F-actin destabilizer. […] The breast cancer cells were placed on the upper chamber of the transwell plates or invasion chambers coated with Matrigel in the presence or absence of V1, after 18 h of incubation, the cells at the lower chamber were stained with crystal violet and quantified. […]

[8] = tested on: HeLa cells; assay: Focal adhesion dynamics after nocodazole release (Vinculin puncta); assay type: cell-based; details: nocodazole treatment
Description: The indicated time points represent at which NOC was removed from the HeLa cells, followed by staining the cells with anti-Vinculin antibody and Phalloidin. […] The indicated time points of FIGS. 3B and 3C represent at which the HeLa cells were released from cold arrest, followed by being stained with antibodies against EEA1 or LAMP1.
Focal adhesion (FA) dynamics is a key process during cell migration and therefore the effects of V1 treatment on spatiotemporal regulation of FA dynamics have been assessed. HeLa cells were plated on cover slides at 24-well plates and treated with nocodazole (NOC) in the presence or absence of V1 (1 μM). At indicated times, after removing NOC, the cells were stained with anti-Vinculin antibody and Phalloidin, and the Vinculin puncta were quantified.

[9] = molecular target: T1, recombinant CapZβ-CapZα heterodimer (Homo sapiens, UniProt P47756); assay: Streptavidin pulldown with purified recombinant CapZα and CapZβ; assay type: binding; details: in vitro
T1 construct: His6
Procedure: FIG. 14D is a pair of immunoblots of purified CapZα and CapZβ recombinant proteins after incubated with Biotin-V1. FIG. 14E is a CapZβ immunoblot of lysate of HeLa cells treated with biotin or Biotin-V1.
The expression of these genes in HeLa cells were knocked out by CRISPR/Cas9 to assess whether the ability of V1 inducing vacuole formation or endocytosis arrest would be affected by these knockdowns. […] CapZα and CapZβ are the α and β subunits of the actin capping protein (CP), also called CapZ, and the CapZβ-CapZα heterodimeric complex normally binds to the barbed ends of actin filaments to prevent further filament elongation. To investigate whether biotin-V1 or biotin alone would be able to bind with the CapZβ-CapZα heterodimeric complex, the inventors have incubated biotin or bioin-V1 with purified His6-CapZα and His6-CapZβ recombinant proteins, or purified CapZα and CapZβ proteins, followed by subjecting the mixture to streptavidin pulldown. The streptavidin pulldowns were analyzed by His6 immunoblotting, coomassie blue staining or CapZβ immunoblotting. […] In addition, in another experiment, HeLa cells were treated with biotin or biotin-V1 and the lysate thereof was incubated with streptavidin beads, followed by subjecting to streptavidin pulldown.

SMILES: OCCOCCN(c1ccccc1)c1nc(N/N=C/c2cccc(I)c2)nc(N2CCOCC2)n1 [6J-1]
- accumulation of LC3-II and p62 [1]: highly comparable result as V1; also recorded: induces comparable accumulation of LC3-II and p62 in HeLa cells as V1
- treated cells remained alive ([2]; 100 μM): over 80%
- cytotoxicity ([2]; 0.01-10 μM, 24 or 48 h): non-cytotoxic
- invasion of cancer cells [3]: capable of inhibiting migration and invasion of cancer cells
- migration of cancer cells [4]: capable of inhibiting migration and invasion of cancer cells
- colony formation [5]: inhibitory on the colony formation of all the aforementioned cell lines in a dose dependent manner
- metastasis of 4T1 cells (tumor nodules in the lungs) [6]: significantly inhibited the metastasis of 4T1 cells

SMILES: C/C1=C/C(=O)O[C@@H]2C[C@@H](CC[C@H](C)/C=C\C=C\CC1)O[C@@](O)([C@@H]1CSC(=O)N1)C2 [LA, latrunculin A]
- migration of 4T07 cells [7]: much lower effect on the migration of 4T07 cells at similar concentrations of V1

SMILES: COC(=O)Nc1nc2ccc(C(=O)c3cccs3)cc2[nH]1 [NOC, nocodazole]
- effect on microtubules and formation of FAs [8]: depolymerized the microtubules and stabilized the formation of FAs

SMILES: O=C(O)CCCC[C@@H]1SC[C@@H]2NC(=O)N[C@@H]21 [biotin]
- interaction with recombinant CapZβ-CapZα heterodimer [9]: not biotin alone
